Data published in PubChem BioAssay (NCI).
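The concentration for 50% growth inhibition is given as GI50. TGI is the concentration that stops growth completely.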

Assays:
Assay in all cases: inhibition of tumour cell growth, NCI panel, 384-well format
A549 NSCLC = system: A549 NSCLC
DU-145 prostate = system: DU-145 prostate
EKVX NSCLC = system: EKVX NSCLC
HCT-116 colon = system: HCT-116 colon
HCT-15 colon = system: HCT-15 colon
HT29 colon = system: HT29 colon
MDA-MB-468 breast = system: MDA-MB-468 breast
NCI-H226 lung = system: NCI-H226 lung
OVCAR-3 ovarian = system: OVCAR-3 ovarian
RPMI-8226 leukemia = system: RPMI-8226 leukemia
SF-295 CNS = system: SF-295 CNS
SK-MEL-5 melanoma = system: SK-MEL-5 melanoma
SNB-19 CNS = system: SNB-19 CNS

Q: Which GI50 (A549 NSCLC) does the source give for `C[C@H](N)C(=O)N1C[C@H](CCCB(O)O)[C@](N)(C(=O)O)C1` here?
A: The GI50 was > 100 µM.

Q: And the TGI (A549 NSCLC)?
A: Its TGI is > 100 µM.

Q: And the GI50 (DU-145 prostate)?
A: The GI50 was > 100 µM.

Q: And the TGI (DU-145 prostate)?
A: Its TGI is > 100 µM.

Q: What about the GI50 (EKVX NSCLC) of the same molecule?
A: The GI50 was > 100 µM.

Q: And the TGI (EKVX NSCLC)?
A: The TGI was > 100 µM.

Q: And the GI50 (HCT-116 colon)?
A: The GI50 was > 100 µM.

Q: And the TGI (HCT-116 colon)?
A: Its TGI is > 100 µM.

Q: And the GI50 (HCT-15 colon)?
A: The GI50 was > 100 µM.

Q: And the TGI (HCT-15 colon)?
A: The TGI was > 100 µM.

Q: What about the GI50 (HT29 colon) of the same molecule?
A: The GI50 was > 100 µM.

Q: And the TGI (HT29 colon)?
A: The TGI was > 100 µM.

Q: And the GI50 (MDA-MB-468 breast)?
A: Its GI50 is > 100 µM.

Q: And the TGI (MDA-MB-468 breast)?
A: Its TGI is > 100 µM.

Q: And the GI50 (NCI-H226 lung)?
A: The GI50 was > 100 µM.

Q: And the TGI (NCI-H226 lung)?
A: The TGI was > 100 µM.

Q: And the GI50 (OVCAR-3 ovarian)?
A: The GI50 was > 100 µM.

Q: And the TGI (OVCAR-3 ovarian)?
A: The TGI was > 100 µM.

Q: And the GI50 (RPMI-8226 leukemia)?
A: Its GI50 is > 100 µM.

Q: And the TGI (RPMI-8226 leukemia)?
A: Its TGI is > 100 µM.

Q: What about the GI50 (SF-295 CNS) of the same molecule?
A: The GI50 was > 100 µM.

Q: And the TGI (SF-295 CNS)?
A: Its TGI is > 100 µM.

Q: What about the GI50 (SK-MEL-5 melanoma) of the same molecule?
A: Its GI50 is > 100 µM.

Q: What about the TGI (SK-MEL-5 melanoma) of the same molecule?
A: Its TGI is > 100 µM.

Q: And the GI50 (SNB-19 CNS)?
A: The GI50 was > 100 µM.

Q: And the TGI (SNB-19 CNS)?
A: The TGI was > 100 µM.
